The source of these data is PMC5641952 (ACS Medicinal Chemistry Letters, 2017).

In the experiment the target is MDM2 (Homo sapiens, UniProt Q00987). Put plainly: Fluorescence polarization. The following applies: FP assay. (Polarisation of emitted light reports the rotation of a fluorescent probe.)
Take `O=C(O)c1[nH]c2cc(Cl)ccc2c1C1C(=O)NCCCCCCCCCCCCCC(=O)N1Cc1ccc(F)cc1` (stereo not drawn) [1d]: the “activity toward MDM2 (in words)” value is on record as “only slightly or not active at all”. The value for `CCOC(=O)c1[nH]c2cc(Cl)ccc2c1C1C(=O)NCCCCCCCCCCCCCCCCCCCC(=O)N1Cc1ccc(OCc2ccc(Cl)c(Cl)c2)cc1` (stereo not drawn) [2k] was “orders of magnitude less reactive or inactive”; that for `O=C(O)c1[nH]c2cc(Cl)ccc2c1C1C(=O)NCCCCCCCCCCCCCC(=O)N1Cc1ccc(Cl)cc1` (stereo not drawn) [1f] was “only slightly or not active at all”.
